# According to patent US8192962B2, “Processes for detecting toxic substances” (Daikin Industries, Ltd., priority 2001, dated 2012):
# Tested on: Transport facilitation protein genes
# Test: DNA chip mRNA expression in yeast, transport facilitation protein genes (Table 5)
# Type: cell-based, Saccharomyces cerevisiae S288C
# Procedure, shortened: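 In this screen, yeast in logarithmic growth are challenged for two hours with a toxic substance at a non-lethal inhibitory concentration. Their mRNA, converted to Cy3- or Cy5-labeled cDNA, hybridizes at 65° C. to a chip spanning every yeast gene, and expression is expressed as a ratio to untreated cells.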
structure (smiles),measurement,setting,value
"C=CC=O [(14), acrolein]",The level of expressed mRNA in the presence of chemical substance/The level of expressed mRNA in the absence of chemical substance,yeast gene YHL035C,0.8
same,The level of expressed mRNA in the presence of chemical substance/The level of expressed mRNA in the absence of chemical substance,yeast gene YHL040C,1.1
same,The level of expressed mRNA in the presence of chemical substance/The level of expressed mRNA in the absence of chemical substance,yeast gene YHL047C,0.5
same,The level of expressed mRNA in the presence of chemical substance/The level of expressed mRNA in the absence of chemical substance,yeast gene YHR026W,1.3
same,The level of expressed mRNA in the presence of chemical substance/The level of expressed mRNA in the absence of chemical substance,yeast gene YHR092C,1.6
same,The level of expressed mRNA in the presence of chemical substance/The level of expressed mRNA in the absence of chemical substance,yeast gene YHR094C,0.6
same,The level of expressed mRNA in the presence of chemical substance/The level of expressed mRNA in the absence of chemical substance,yeast gene YHR175W,0.7
same,The level of expressed mRNA in the presence of chemical substance/The level of expressed mRNA in the absence of chemical substance,yeast gene YIL006W,1.0
same,The level of expressed mRNA in the presence of chemical substance/The level of expressed mRNA in the absence of chemical substance,yeast gene YIL022W,0.6
same,The level of expressed mRNA in the presence of chemical substance/The level of expressed mRNA in the absence of chemical substance,yeast gene YIL056W,1.0
same,The level of expressed mRNA in the presence of chemical substance/The level of expressed mRNA in the absence of chemical substance,yeast gene YIL088C,1.2
same,The level of expressed mRNA in the presence of chemical substance/The level of expressed mRNA in the absence of chemical substance,yeast gene YJL034W,0.6
same,The level of expressed mRNA in the presence of chemical substance/The level of expressed mRNA in the absence of chemical substance,yeast gene YJL212C,0.8
same,The level of expressed mRNA in the presence of chemical substance/The level of expressed mRNA in the absence of chemical substance,yeast gene YJL219W,1.1
same,The level of expressed mRNA in the presence of chemical substance/The level of expressed mRNA in the absence of chemical substance,yeast gene YJR077C,0.7
same,The level of expressed mRNA in the presence of chemical substance/The level of expressed mRNA in the absence of chemical substance,yeast gene YJR106W,0.9
same,The level of expressed mRNA in the presence of chemical substance/The level of expressed mRNA in the absence of chemical substance,yeast gene YJR121W,0.7
same,The level of expressed mRNA in the presence of chemical substance/The level of expressed mRNA in the absence of chemical substance,yeast gene YKL016C,1.6
same,The level of expressed mRNA in the presence of chemical substance/The level of expressed mRNA in the absence of chemical substance,yeast gene YKL146W,1.0
same,The level of expressed mRNA in the presence of chemical substance/The level of expressed mRNA in the absence of chemical substance,yeast gene YKL221W,1.4
same,The level of expressed mRNA in the presence of chemical substance/The level of expressed mRNA in the absence of chemical substance,yeast gene YKR039W,1.2
same,The level of expressed mRNA in the presence of chemical substance/The level of expressed mRNA in the absence of chemical substance,yeast gene YKR067W,1.3
same,The level of expressed mRNA in the presence of chemical substance/The level of expressed mRNA in the absence of chemical substance,yeast gene YLL028W,0.7
same,The level of expressed mRNA in the presence of chemical substance/The level of expressed mRNA in the absence of chemical substance,yeast gene YLR081W,1.0
same,The level of expressed mRNA in the presence of chemical substance/The level of expressed mRNA in the absence of chemical substance,yeast gene YLR092W,1.4
same,The level of expressed mRNA in the presence of chemical substance/The level of expressed mRNA in the absence of chemical substance,yeast gene YLR295C,1.2
same,The level of expressed mRNA in the presence of chemical substance/The level of expressed mRNA in the absence of chemical substance,yeast gene YLR348C,1.0
same,The level of expressed mRNA in the presence of chemical substance/The level of expressed mRNA in the absence of chemical substance,yeast gene YLR378C,0.4
same,The level of expressed mRNA in the presence of chemical substance/The level of expressed mRNA in the absence of chemical substance,yeast gene YMR011W,0.6
same,The level of expressed mRNA in the presence of chemical substance/The level of expressed mRNA in the absence of chemical substance,yeast gene YMR162C,1.0
same,The level of expressed mRNA in the presence of chemical substance/The level of expressed mRNA in the absence of chemical substance,yeast gene YMR203W,0.7
same,The level of expressed mRNA in the presence of chemical substance/The level of expressed mRNA in the absence of chemical substance,yeast gene YNL055C,0.9
same,The level of expressed mRNA in the presence of chemical substance/The level of expressed mRNA in the absence of chemical substance,yeast gene YNL259C,1.4
same,The level of expressed mRNA in the presence of chemical substance/The level of expressed mRNA in the absence of chemical substance,yeast gene YNR072W,1.0
same,The level of expressed mRNA in the presence of chemical substance/The level of expressed mRNA in the absence of chemical substance,yeast gene YOL119C,2.4
same,The level of expressed mRNA in the presence of chemical substance/The level of expressed mRNA in the absence of chemical substance,yeast gene YOL156W,0.9
same,The level of expressed mRNA in the presence of chemical substance/The level of expressed mRNA in the absence of chemical substance,yeast gene YOL163W,1.2
same,The level of expressed mRNA in the presence of chemical substance/The level of expressed mRNA in the absence of chemical substance,yeast gene YOR035C,0.9
same,The level of expressed mRNA in the presence of chemical substance/The level of expressed mRNA in the absence of chemical substance,yeast gene YOR130C,1.3
same,The level of expressed mRNA in the presence of chemical substance/The level of expressed mRNA in the absence of chemical substance,yeast gene YOR153W,0.3
same,The level of expressed mRNA in the presence of chemical substance/The level of expressed mRNA in the absence of chemical substance,yeast gene YOR270C,0.7
same,The level of expressed mRNA in the presence of chemical substance/The level of expressed mRNA in the absence of chemical substance,yeast gene YOR273C,0.5
same,The level of expressed mRNA in the presence of chemical substance/The level of expressed mRNA in the absence of chemical substance,yeast gene YOR316C,1.0
same,The level of expressed mRNA in the presence of chemical substance/The level of expressed mRNA in the absence of chemical substance,yeast gene YOR328W,0.8
same,The level of expressed mRNA in the presence of chemical substance/The level of expressed mRNA in the absence of chemical substance,yeast gene YOR332W,1.1
same,The level of expressed mRNA in the presence of chemical substance/The level of expressed mRNA in the absence of chemical substance,yeast gene YOR348C,1.2
same,The level of expressed mRNA in the presence of chemical substance/The level of expressed mRNA in the absence of chemical substance,yeast gene YPL036W,0.6
same,The level of expressed mRNA in the presence of chemical substance/The level of expressed mRNA in the absence of chemical substance,yeast gene YPL134C,1.4
same,The level of expressed mRNA in the presence of chemical substance/The level of expressed mRNA in the absence of chemical substance,yeast gene YPL224C,1.4
same,The level of expressed mRNA in the presence of chemical substance/The level of expressed mRNA in the absence of chemical substance,yeast gene YPL265W,1.1
same,The level of expressed mRNA in the presence of chemical substance/The level of expressed mRNA in the absence of chemical substance,yeast gene YPL271W,1.3
same,The level of expressed mRNA in the presence of chemical substance/The level of expressed mRNA in the absence of chemical substance,yeast gene YPR124W,0.4
same,The level of expressed mRNA in the presence of chemical substance/The level of expressed mRNA in the absence of chemical substance,yeast gene YPR192W,0.7
same,The level of expressed mRNA in the presence of chemical substance/The level of expressed mRNA in the absence of chemical substance,yeast gene YPR194C,1.0
